Patent US20240180822A1, “NON-NANOPARTICULATE APPLICATION FORMS OF MACROLIDES” (Nucleus Medical GmbH, priority 2021, published 2024)

Assay: saturation solubility of tacrolimus in different solvents (HPLC in the supernatant)
Type: physicochemical
Details: all tested organic solvents
Procedure: Tacrolimus was dissolved in an organic solvent. Particularly, the saturation solubility of tacrolimus in different organic solvents was tested. Crystalline active ingredient was added to a defined amount of solvent at room temperature while stirring until an insoluble sediment was formed. After filtration, the concentration of active ingredient was quantified by HPLC in the supernatant.

Question: For `C=CC[C@@H]1/C=C(\C)C[C@H](C)C[C@H](OC)[C@H]2O[C@@](O)(C(=O)C(=O)N3CCCC[C@H]3C(=O)O[C@H](/C(C)=C/[C@@H]3CC[C@@H](O)[C@H](OC)C3)[C@H](C)[C@@H](O)CC1=O)[C@H](C)C[C@@H]2OC` [Tacrolimus], which “solubility in organic solvents” value is on record?
Answer: Its value is “soluble in all tested organic solvents”.
